Test results from patent publication US20050107289A1, “Anti-microbial peptides and compositions” (priority 2001, published 2005).
Structures can show the parent of a compound that is named as a salt. Where two headings read alike, the source gives them in different places. Non-standard residues stand in square brackets, D forms with d. Residues, ends and D or L forms follow the SMILES beside them.

What was measured:
[1] = test system: vancomycin-resistant Enterococus faecalis (VRE)(ATCC 51575); type: cell-based, Enterococcus faecalis; set-up: key to VRE (in vitro activity): peptide concentration in μg/ml (broth dilution assay); conditions: Table 9
Outline: (§1)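 Peptide activity was measured by NCCLS M7-A4 broth dilution, mostly as microdilution with some macrodilution. Serial 2-fold dilutions, approximately 400-2 μg/ml stock range, were made in 5% DMSO/9% aq. sucrose. Overnight cultures were diluted 4000-fold to about 2.5×10^5 cfu/ml inoculum.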

[2] = test system: S. aureus (MRSA) ATCC 33591; type: cell-based, Staphylococcus aureus; conditions: Table 9
Outline: as §1

murine red blood cells = assay: Red blood cell hemolysis; type: cell-based, mouse
Outline: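 Washed murine erythrocytes at 5% in saline with 10% FBS were exposed to serial peptide dilutions for 30 min at 37° C. Supernatant absorbance at 560 nm was read, with saline as 0% and 1% Triton X-100 as 100% hemolysis.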

[3] = media c: Brain Heart Infusion (BHI)
[4] = media b: cation adjusted Meuller Hinton broth (MHBII)
[5] = media a: anti-microbial media-3 (AM-3)

Row | SMILES | VRE (in vitro activity) [1, 3] | MRSA (in vitro activity) [2, 4] | RBC Hemolysis (HD50) (murine red blood cells) | VRE (in vitro activity) ([1]; media a: AM-3) | MRSA (in vitro activity) [2, 5] | VRE (in vitro activity) ([1]; media b: MHBII) | MRSA (in vitro activity) ([2]; media b: cation adjusted Meuller Hinton broth (MHBII), listed as [KSKLFLFL] (54))
1 | CC(C)C[C@@H]1NC(=O)[C@@H](Cc2c[nH]c3ccccc23)NC(=O)[C@H](CCCCN)NC(=O)[C@@H](CO)NC(=O)[C@H](CCC(N)=O)NC(=O)[C@@H](CO)NC(=O)[C@H](CCCCN)NC(=O)[C@@H](Cc2c[nH]c3ccccc23)NC1=O [SEQ ID NO:92, [KSQSKWLW]] (cyclo(K[dS]Q[dS]K[dW]L[dW])) | 18 | 9 | 195 | – | – | – | –
2 | CC(C)C[C@H]1NC(=O)[C@H](Cc2c[nH]c3ccccc23)NC(=O)[C@@H](CCCNC(=N)N)NC(=O)[C@H](CCCCN)NC(=O)[C@@H](CO)NC(=O)[C@H](CCCCN)NC(=O)[C@@H](CC(C)C)NC(=O)[C@H](Cc2c[nH]c3ccccc23)NC1=O [SEQ ID NO:75, [KRWLWLKS]] (cyclo(K[dR]W[dL]W[dL]K[dS])) | – | – | >48 | 22 | 9 | – | –
3 | N=C(N)NCCC[C@H]1NC(=O)[C@H](CCCCN)NC(=O)[C@@H](Cc2ccccc2)NC(=O)[C@H](Cc2c[nH]c3ccccc23)NC(=O)[C@@H](Cc2ccccc2)NC(=O)[C@H](CCCCN)NC(=O)[C@@H](Cc2ccccc2)NC(=O)[C@H](CCC(N)=O)NC1=O [SEQ ID NO:102, [KRQFKFWF]] (cyclo(K[dR]Q[dF]K[dF]W[dF])) | 12 | 12 | >200 | – | – | – | –
4 | CC(C)C[C@H]1NC(=O)[C@H](Cc2c[nH]c3ccccc23)NC(=O)[C@@H](Cc2ccccc2)NC(=O)[C@H](CCCCN)NC(=O)[C@@H](Cc2c[nH]c3ccccc23)NC(=O)[C@H](Cc2c[nH]cn2)NC(=O)[C@@H](CC(C)C)NC(=O)[C@H](Cc2c[nH]c3ccccc23)NC1=O [SEQ ID NO:99, [KFWLWLHW]] (cyclo(K[dF]W[dL]W[dL]H[dW])) | – | – | >25 | 21 | 21 | – | –
5 | CC(C)C[C@H]1NC(=O)[C@H](CCCCN)NC(=O)[C@@H](CO)NC(=O)[C@H](CCCCN)NC(=O)[C@@H](CC(C)C)NC(=O)[C@H](C(C)C)NC(=O)[C@@H](CC(C)C)NC(=O)[C@H](C(C)C)NC1=O [SEQ ID NO:60, [KSKLVLVL]] (cyclo(K[dS]K[dL]V[dL]V[dL])) | >220 | >220 | >220 | – | – | – | –
6 | CC(C)C[C@@H]1NC(=O)[C@@H](Cc2c[nH]c3ccccc23)NC(=O)[C@H](CCCCN)NC(=O)[C@@H](Cc2c[nH]cn2)NC(=O)[C@H](CO)NC(=O)[C@@H](Cc2c[nH]cn2)NC(=O)[C@H](CCCCN)NC(=O)[C@@H](Cc2c[nH]c3ccccc23)NC1=O [SEQ ID NO:88, [KHSHKWLW]] (cyclo([dW]L[dW]K[dH]S[dH]K)) | 6 | 6 | 200 | – | – | – | –
7 | CC(C)C[C@H]1NC(=O)[C@H](Cc2ccccc2)NC(=O)[C@@H](Cc2c[nH]cn2)NC(=O)[C@H](CCCCN)NC(=O)[C@@H](Cc2c[nH]cn2)NC(=O)[C@H](CCCCN)NC(=O)[C@@H](CC(C)C)NC(=O)[C@H](Cc2c[nH]c3ccccc23)NC1=O [SEQ ID NO:72, [KHKHFLWL]] (cyclo(K[dH]K[dH]F[dL]W[dL])) | 16 | 8 | 200 | – | – | – | –
8 | CC(C)C[C@@H]1NC(=O)[C@@H](Cc2c[nH]c3ccccc23)NC(=O)[C@H](CCC(N)=O)NC(=O)[C@@H](CC(N)=O)NC(=O)[C@H](CCCCN)NC(=O)[C@@H](Cc2c[nH]c3ccccc23)NC1=O [SEQ ID NO:123, [KNQWLW]] (cyclo(K[dN]Q[dW]L[dW])) | – | – | >74 | >74 | >74 | – | –
9 | NCCCC[C@@H]1NC(=O)[C@@H](Cc2ccccc2)NC(=O)[C@H](Cc2c[nH]c3ccccc23)NC(=O)[C@@H](Cc2ccccc2)NC(=O)[C@H](CCCCN)NC(=O)[C@@H](CC(N)=O)NC(=O)[C@H](CCC(N)=O)NC(=O)[C@@H](CC(N)=O)NC1=O [SEQ ID NO:89, [KNQNKFWF]] (cyclo(K[dN]Q[dN]K[dF]W[dF])) | 70 | 17 | 280 | – | – | – | –
10 | CC(C)C[C@H]1NC(=O)[C@H](C)NC(=O)[C@@H](CC(C)C)NC(=O)[C@H](Cc2ccccc2)NC(=O)[C@@H](CC(C)C)NC(=O)[C@H](CCCCN)NC(=O)[C@@H](Cc2c[nH]cn2)NC(=O)[C@H](CCCCN)NC1=O [SEQ ID NO:47, [KHKLFLAL]] (cyclo(K[dH]K[dL]F[dL]A[dL])) | 13 | 3 | >220 | – | – | – | –
11 | CC(C)C[C@@H]1NC(=O)[C@@H](Cc2c[nH]c3ccccc23)NC(=O)[C@H](Cc2c[nH]c3ccccc23)NC(=O)[C@@H](CCCNC(=N)N)NC(=O)[C@H](CCC(N)=O)NC(=O)[C@@H](CCCNC(=N)N)NC(=O)[C@H](Cc2c[nH]c3ccccc23)NC(=O)[C@@H](Cc2c[nH]c3ccccc23)NC1=O [SEQ ID NO:71, [QRWWLWWR]] (cyclo(Q[dR]W[dW]L[dW]W[dR])) | – | 6.3 | 35 | – | – | 6.3 | –
12 | C[C@H](O)[C@H]1NC(=O)[C@H](CCCNC(=N)N)NC(=O)[C@@H](CO)NC(=O)[C@H](CCC(N)=O)NC(=O)[C@@H](Cc2c[nH]cn2)NC(=O)[C@H](CCCCN)NC1=O [SEQ ID NO:130, [KHQSRT]] (cyclo(K[dH]Q[dS]R[dT])) | >200 | >200 | >200 | – | – | – | –
13 | CC(C)C[C@H]1NC(=O)[C@H](Cc2c[nH]c3ccccc23)NC(=O)[C@@H](CO)NC(=O)[C@H](CCCCN)NC(=O)[C@@H](CO)NC(=O)[C@H](CCCNC(=N)N)NC(=O)[C@@H](CC(C)C)NC(=O)[C@H](Cc2c[nH]c3ccccc23)NC1=O [SEQ ID NO:84, [KSWLWLRS]] (cyclo(K[dS]W[dL]W[dL]R[dS])) | – | – | >62 | 12 | 9 | – | –
14 | CC(C)C[C@@H]1NC(=O)[C@@H](Cc2c[nH]c3ccccc23)NC(=O)[C@H](CCCCN)NC(=O)[C@@H](CCCNC(=N)N)NC(=O)[C@H](CCCCN)NC(=O)[C@@H](Cc2c[nH]c3ccccc23)NC1=O [SEQ ID NO:125, [KRKWLW]] (cyclo(K[dR]K[dW]L[dW])) | – | – | >174 | 33 | 9 | – | –
15 | CC(C)C[C@@H]1NC(=O)[C@@H](Cc2c[nH]c3ccccc23)NC(=O)[C@H](CCCCN)NC(=O)[C@@H](CO)NC(=O)[C@H](CO)NC(=O)[C@@H](CO)NC(=O)[C@H](CCCCN)NC(=O)[C@@H](Cc2c[nH]c3ccccc23)NC1=O [SEQ ID NO:93, [KSSSKWLW]] (cyclo(K[dS]S[dS]K[dW]L[dW])) | 6 | 6 | 175 | – | – | – | –
16 | CC(C)C[C@H]1NC(=O)[C@H](Cc2c[nH]c3ccccc23)NC(=O)[C@@H](CCCCN)NC(=O)[C@H](CCCCN)NC(=O)[C@@H](CCCCN)NC(=O)[C@H](Cc2c[nH]c3ccccc23)NC(=O)[C@@H](CC(C)C)NC(=O)[C@H](Cc2c[nH]c3ccccc23)NC1=O [[KKKWLWLW-HCl] (17), cyclo[-(D-Lys-Lys-D-Lys-(Trp-D-Leu)2-Trp-]] (cyclo([dK]K[dK]W[dL]W[dL]W)) | 6 | 6 | 75 | – | – | – | –
17 | CC(C)C[C@H]1NC(=O)[C@H](Cc2ccccc2)NC(=O)[C@@H](CC(C)C)NC(=O)[C@H](CCCCN)NC(=O)[C@@H]([C@H](C)O)NC(=O)[C@H](CCCCN)NC(=O)[C@@H](CC(C)C)NC(=O)[C@H](Cc2ccccc2)NC1=O [SEQ ID NO:65, [KTKLFLFL]] (cyclo(K[dT]K[dL]F[dL]F[dL])) | >240 | 60 | >240 | – | – | – | –
18 | CC(C)C[C@@H]1NC(=O)[C@@H](CCCNC(=N)N)NC(=O)[C@H](CCC(N)=O)NC(=O)[C@@H](CCCNC(=N)N)NC(=O)[C@H](Cc2c[nH]c3ccccc23)NC(=O)[C@@H](Cc2c[nH]c3ccccc23)NC(=O)[C@H](CC(C)C)NC(=O)[C@@H](Cc2c[nH]c3ccccc23)NC1=O [SEQ ID NO:69, [QRLWLWWR]] (cyclo(Q[dR]L[dW]L[dW]W[dR])) | – | 6.3 | 35 | – | – | 6.3 | –
19 | CC(C)C[C@H]1NC(=O)[C@H](CCCCN)NC(=O)[C@@H](CO)NC(=O)[C@H](CCCCN)NC(=O)[C@@H](CC(C)C)NC(=O)[C@H](Cc2ccccc2)NC(=O)[C@@H](CC(C)C)NC(=O)[C@H](Cc2ccccc2)NC1=O [SEQ ID NO:54, [KSKLFLFL]] (cyclo(F[dL]F[dL]K[dS]K[dL])) | 200 | – | >200 | – | – | – | 50
20 | CC(C)C[C@H]1NC(=O)[C@H](C(C)C)NC(=O)[C@@H](CC(C)C)NC(=O)[C@H](C(C)C)NC(=O)[C@@H](CCCCN)NC(=O)[C@H](CO)NC(=O)[C@@H](CO)NC(=O)[C@H](CCCCN)NC1=O [SEQ ID NO:80, [KSSKVLVL]] (cyclo(K[dS]S[dK]V[dL]V[dL])) | 180 | 22 | >180 | – | – | – | –
